For orientation: Ki means the dissociation constant of the complex between target and ligand, obtained from inhibition or displacement. Low values mean higher affinity, high ones lower affinity.

Each structure is given as a SMILES string. Counter-ions that a name gives are not always drawn.

Series [1] concerns the target T1, μOR (Homo sapiens, UniProt P35372). Kind of series: PDSP primary radioligand displacement screen, μOR. The series is classed as binding. Conditions: 10 μM. On the technique in general: In a radioligand displacement assay an active substance lowers the binding of a labelled ligand.
The target of series [2] is FLAG-mouse δOR (Mus musculus, UniProt P32300). As to the kind of experiment: GloSensor cAMP inhibition assay, δOR. It is filed as cell-based. To be noted: efficacy normalized to positive control Leu-Enk.
Chain of FLAG-mouse δOR (P32300 whole entry): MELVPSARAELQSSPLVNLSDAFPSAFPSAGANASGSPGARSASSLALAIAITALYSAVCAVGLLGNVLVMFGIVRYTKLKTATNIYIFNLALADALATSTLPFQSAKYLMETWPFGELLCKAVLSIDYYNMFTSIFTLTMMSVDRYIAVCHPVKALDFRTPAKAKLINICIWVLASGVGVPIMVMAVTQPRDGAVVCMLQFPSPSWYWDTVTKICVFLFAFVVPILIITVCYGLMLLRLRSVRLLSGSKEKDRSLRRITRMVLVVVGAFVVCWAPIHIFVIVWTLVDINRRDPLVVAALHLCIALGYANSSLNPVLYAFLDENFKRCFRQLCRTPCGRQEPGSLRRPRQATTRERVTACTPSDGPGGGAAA
For series [3], the target named is T2, κOR (Homo sapiens, UniProt P41145). It is filed as cell-based.
T2 sequence (P41145 whole entry): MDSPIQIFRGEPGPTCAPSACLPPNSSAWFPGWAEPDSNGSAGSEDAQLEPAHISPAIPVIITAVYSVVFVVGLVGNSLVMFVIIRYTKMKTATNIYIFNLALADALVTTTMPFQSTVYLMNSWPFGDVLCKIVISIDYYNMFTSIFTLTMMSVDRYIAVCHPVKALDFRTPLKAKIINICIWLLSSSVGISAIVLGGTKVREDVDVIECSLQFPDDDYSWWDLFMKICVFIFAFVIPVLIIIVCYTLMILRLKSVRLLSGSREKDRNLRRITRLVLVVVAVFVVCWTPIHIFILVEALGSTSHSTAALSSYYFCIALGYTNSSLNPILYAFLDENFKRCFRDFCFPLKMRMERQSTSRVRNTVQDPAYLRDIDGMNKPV
In series [4] the target is FLAG-mouse κOR (Mus musculus, UniProt P33534). It is filed as cell-based.
Chain of FLAG-mouse κOR (P33534 whole entry): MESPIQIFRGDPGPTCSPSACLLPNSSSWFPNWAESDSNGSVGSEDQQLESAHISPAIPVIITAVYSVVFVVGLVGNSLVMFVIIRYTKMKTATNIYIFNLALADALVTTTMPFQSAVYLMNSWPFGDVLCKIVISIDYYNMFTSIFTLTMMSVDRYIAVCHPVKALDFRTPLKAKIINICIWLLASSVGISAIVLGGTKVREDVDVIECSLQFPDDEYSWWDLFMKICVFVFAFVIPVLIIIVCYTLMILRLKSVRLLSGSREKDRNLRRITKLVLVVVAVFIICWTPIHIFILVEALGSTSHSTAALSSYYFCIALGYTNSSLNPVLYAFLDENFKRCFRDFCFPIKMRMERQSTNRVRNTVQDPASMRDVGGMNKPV
The target in series [5] is HA-mouse μOR (Mus musculus, UniProt P42866). As to the kind of experiment: GloSensor cAMP inhibition assay, μOR. It is filed as cell-based. To be noted: efficacy normalized to positive control DAMGO.
Chain of HA-mouse μOR (P42866 whole entry): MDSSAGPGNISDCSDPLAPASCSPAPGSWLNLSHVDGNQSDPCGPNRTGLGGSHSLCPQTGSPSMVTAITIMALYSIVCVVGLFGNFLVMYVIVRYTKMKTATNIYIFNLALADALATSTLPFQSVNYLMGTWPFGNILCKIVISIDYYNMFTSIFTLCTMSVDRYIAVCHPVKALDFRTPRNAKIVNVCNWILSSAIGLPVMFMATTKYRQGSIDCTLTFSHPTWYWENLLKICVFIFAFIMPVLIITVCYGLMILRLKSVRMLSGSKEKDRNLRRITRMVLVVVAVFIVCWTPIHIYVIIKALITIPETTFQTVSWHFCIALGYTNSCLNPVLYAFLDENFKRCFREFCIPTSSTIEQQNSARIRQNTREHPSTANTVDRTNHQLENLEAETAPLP
The subject of series [6] is C57BL/6 mice. Kind of series: Hot plate thermal nociception assay. The series is classed as in vivo, mouse.
Series [7] has as its system C57BL/6 mice. Kind of series: Tail flick thermal nociception assay. It is filed as in vivo, mouse.
The target in series [8] is human δOR (Homo sapiens, UniProt P41143). Kind of series: PathHunter β-arrestin 2 recruitment assay, δOR. To be noted: highest concentration tested, in words.
Chain of human δOR (P41143 whole entry): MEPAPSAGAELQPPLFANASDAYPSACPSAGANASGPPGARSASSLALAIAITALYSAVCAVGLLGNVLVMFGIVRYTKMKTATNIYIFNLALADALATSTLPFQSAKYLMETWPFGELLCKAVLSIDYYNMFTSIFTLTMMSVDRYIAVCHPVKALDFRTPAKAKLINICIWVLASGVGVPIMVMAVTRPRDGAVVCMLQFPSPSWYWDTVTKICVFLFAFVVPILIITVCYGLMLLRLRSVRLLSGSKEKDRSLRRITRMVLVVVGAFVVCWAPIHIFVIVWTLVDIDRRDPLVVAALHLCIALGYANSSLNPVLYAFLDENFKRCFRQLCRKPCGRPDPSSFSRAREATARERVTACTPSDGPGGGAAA
Series [9] concerns the target T1, μOR. Kind of series: PathHunter β-arrestin 2 recruitment assay, μOR. A general note: Recruitment of arrestin is a read-out of receptor activation apart from second messengers.
Series [10] concerns the target T2, κOR. The series is classed as binding.
Series [11] can be described thus: Partition coefficients of akuamma alkaloids in CCS solvent systems. It is filed as physicochemical. To be noted: for Kacid: 10 mM HCl; for Kbase: 10 mM TEA.
Series [12] has as its system Wistar rats. Conditions: p.o., cited from earlier work.
Series [13] has as its target T2, κOR. Kind of series: PDSP secondary binding assay, κOR.
The mark [14] stands for this setting: 5 mg/kg p.o., any of the timepoints tested.

T1 sequence (P35372 whole entry): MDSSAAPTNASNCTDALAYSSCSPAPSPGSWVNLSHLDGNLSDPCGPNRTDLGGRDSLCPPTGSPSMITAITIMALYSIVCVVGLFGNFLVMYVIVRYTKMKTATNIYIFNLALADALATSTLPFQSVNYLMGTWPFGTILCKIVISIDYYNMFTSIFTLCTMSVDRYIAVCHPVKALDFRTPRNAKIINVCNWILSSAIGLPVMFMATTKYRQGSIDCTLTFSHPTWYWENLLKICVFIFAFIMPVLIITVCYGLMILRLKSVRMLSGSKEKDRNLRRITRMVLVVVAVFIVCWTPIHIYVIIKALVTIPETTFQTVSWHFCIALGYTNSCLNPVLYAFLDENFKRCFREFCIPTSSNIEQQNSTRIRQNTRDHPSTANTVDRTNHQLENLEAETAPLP

Turning to `C/C=C1/CN2CC[C@@]34c5cc(O)ccc5N(C)[C@]35OC[C@@]4(C(=O)OC)[C@H]1C[C@H]25` [Compound 1, akuammine], the “displacement of [3H]-DAMGO” value in series [1] is listed as “displaced”. Also, the “cAMP α” value in series [2] was found to be 50 ± 35; in [5], 62 ± 6. Also, in [3], the “β-arrestin 2 α” value was 35 ± 6. Also, the cAMP inhibition result in series [4] is listed as “did not inhibit cAMP production”. The antinociception result in [6] (3 mg/kg s.c., 110 minutes) is on record as “minimal yet statistically significant antinociception”; in [6] (30 mg/kg s.c., 60 minutes), “minimal yet statistically significant antinociception”; in series [6] (60 mg/kg s.c., 30 minutes), “minimal yet statistically significant antinociception”; in series [6] (oral dosing, data not shown), “no antinociception was measurable”; in series [7] (3 mg/kg s.c., 110 minutes) it was “minimal yet statistically significant antinociception”; in [7] (60 mg/kg s.c., 30 minutes) it was “minimal yet statistically significant antinociception”. Moreover, in series [7] (oral dosing, data not shown), the antinociception result was “no antinociception was measurable”.

Take `C/C=C1/CN2[C@H]3Cc4c([nH]c5ccccc45)[C@@H]2C[C@@H]1[C@]3(CO)C(=O)OC` [Compound 2, akuammidine]: the β-arrestin recruitment result in series [8] is “minimal recruitment”. Further, the “β-arrestin 2 recruitment” value in series [9] (highest concentration tested, in words) is on record as “minimal recruitment”. Further, the “Binding pKi” value in series [10] is reported as −4.8 ± 0.1 (3). Further, the antinociception result in series [6] (3 mg/kg s.c., 110 minutes) was “minimal, yet statistically significant, antinociception”; in series [6] (oral dosing, data not shown), “no antinociception was measurable”; in series [7] (10 mg/kg s.c., 50 minutes), “minimal yet statistically significant antinociception”; in [7] (30 mg/kg s.c., 30 minutes), “minimal yet statistically significant antinociception”; in [7] (oral dosing, data not shown), “no antinociception was measurable”.

For `C/C=C1/CN2CC[C@@]34c5ccccc5N(C)[C@]35OC[C@@]4(C(=O)OC)[C@H]1C[C@H]25` [Compound 3, pseudo-akuammigine], in [1], the “displacement of [3H]-DAMGO” value is given as “displaced”. Besides, the Kacid in [11] (1:1:1:1 Hex/EtOAc/MeOH/H2O) is <<0.01; in [11] (1:1 EtOAc/H2O), 0.10; in series [11] (3:1.5:4 MTBE/CH3CN/H2O), 0.25; in [11] (3:7:3:7 Hex/EtOAc/MeOH/H2O) it was <<0.01. Besides, the Kbase was found to be 2.71 in [11] (1:1:1:1 Hex/EtOAc/MeOH/H2O); 51.9 in series [11] (1:1 EtOAc/H2O); 87.0 in [11] (2:2:3 MTBE/CH3CN/H2O); 30.9 in series [11] (3:1.5:4 MTBE/CH3CN/H2O); 32.3 in [11] (3:7:3:7 Hex/EtOAc/MeOH/H2O). Further, the antinociception entry was “antinociceptive” in series [12] (Wistar rats, 5 mg/kg); “did not produce antinociception” in series [6] (setting [14]); “minimal yet statistically significant antinociception” in series [6] (5 mg/kg s.c., 30 minutes); “failed to produce antinociception” in [6] (10 mg/kg s.c., 30 minutes); “did not produce antinociception” in series [7] (setting [14]); “minimal yet statistically significant antinociception” in series [7] (5 mg/kg s.c., 30 minutes). For the same molecule, the antinociception entry is “minimal yet statistically significant antinociception” in series [7] (5 mg/kg s.c., 60 minutes) and “failed to produce antinociception” in [7] (10 mg/kg s.c., 30 minutes). Moreover, in series [12] (rats), the “time of peak antinociceptive activity” value is 180 min. The “β-arrestin 2 α” value in series [3] stood at 20 ± 20. Also, the “cAMP α” value in [4] worked out at 69 ± 8; in series [5] it was 82 ± 7.

`C/C=C1/CN2CC[C@]34C(=C(C(=O)OC)[C@H]1C[C@H]23)Nc1ccccc14` [Compound 4, akuammicine]: the “displacement of [3H]-DAMGO” value in [1] is listed as “displaced”. Further, the Kacid in series [11] (1:1:1:1 Hex/EtOAc/MeOH/H2O) is <<0.01; in [11] (1:1 EtOAc/H2O), 0.02; in series [11] (2:2:3 MTBE/CH3CN/H2O) it was 0.61; in series [11] (3:1.5:4 MTBE/CH3CN/H2O) it was 0.14; in series [11] (3:7:3:7 Hex/EtOAc/MeOH/H2O), <<0.01. Also, the Kbase in series [11] (1:1:1:1 Hex/EtOAc/MeOH/H2O) is 1.63; in series [11] (1:1 EtOAc/H2O), 222; in series [11] (2:2:3 MTBE/CH3CN/H2O), 27.7; in series [11] (3:1.5:4 MTBE/CH3CN/H2O), 64.1; in series [11] (3:7:3:7 Hex/EtOAc/MeOH/H2O), 28.9. The molecule also showed a Ki in [13] of 170 nM. Besides, the “Binding pKi” value in series [10] is −7.1 ± 0.1 (3).

For `C/C=C1/CN2CC[C@]34C(=Nc5ccccc53)[C@@H]2C[C@@H]1[C@@]4(COC(C)=O)C(=O)OC` [Compound 5, akuammiline], the “displacement of [3H]-DAMGO” value in series [1] is “significantly less displacement”. Further, the Kacid in [11] (1:1:1:1 Hex/EtOAc/MeOH/H2O) is on record as <<0.01; in series [11] (1:1 EtOAc/H2O), 0.03; in series [11] (2:2:3 MTBE/CH3CN/H2O) it was 0.27; in series [11] (3:1.5:4 MTBE/CH3CN/H2O), 0.05; in series [11] (3:7:3:7 Hex/EtOAc/MeOH/H2O), <<0.01. Moreover, the Kbase stood at 0.23 in series [11] (1:1:1:1 Hex/EtOAc/MeOH/H2O); 28.2 in series [11] (1:1 EtOAc/H2O); 5.61 in [11] (2:2:3 MTBE/CH3CN/H2O); 6.82 in series [11] (3:1.5:4 MTBE/CH3CN/H2O); 2.53 in series [11] (3:7:3:7 Hex/EtOAc/MeOH/H2O). This molecule registered a Ki in series [13] of 400 nM. Moreover, the “Binding pKi” value in series [10] was −6.0 ± 0.1 (3).

In the case of `C/C=C1/CN2[C@@H]3C[C@@]45c6ccccc6N[C@]4(O3)[C@@H]2C[C@@H]1[C@@]5(COC(C)=O)C(=O)OC` [Compound 6, picraline], the “displacement of [3H]-DAMGO” value in series [1] is “significantly less displacement”. Also, the Kacid is <<0.01 in [11] (1:1:1:1 Hex/EtOAc/MeOH/H2O); 0.03 in series [11] (1:1 EtOAc/H2O); 0.56 in series [11] (2:2:3 MTBE/CH3CN/H2O); 0.10 in [11] (3:1.5:4 MTBE/CH3CN/H2O); 0.01 in series [11] (3:7:3:7 Hex/EtOAc/MeOH/H2O). The Kbase in series [11] (1:1:1:1 Hex/EtOAc/MeOH/H2O) is recorded as 0.82; in [11] (1:1 EtOAc/H2O), 16.09; in series [11] (2:2:3 MTBE/CH3CN/H2O), 11.4; in [11] (3:1.5:4 MTBE/CH3CN/H2O), 17.4; in series [11] (3:7:3:7 Hex/EtOAc/MeOH/H2O), 7.29.

As to `C[C@@H](NC(=O)[C@@H](N)Cc1ccc(O)cc1)C(=O)NCC(=O)N(C)[C@@H](Cc1ccccc1)C(=O)NCCO` [DAMGO, (2S)-2-[[2-[[(2R)-2-[[(2S)-2-Amino-3-(4-hydroxyphenyl)propanoyl]amino]propanoyl]amino]acetyl]-methylamino]-N-(2-hydroxyethyl)-3-phenylpropanamide, reference compound], in [5], the “cAMP α” value was determined as 100. Further, the “β-arrestin 2 α” value in [9] (efficacy normalized to positive control DAMGO) was determined as 100.

Take `CN1CC[C@]23c4c5ccc(O)c4O[C@H]2[C@@H](O)C=C[C@H]3[C@H]1C5` [morphine, morphine sulfate pentahydrate, reference compound]: the antinociception entry in series [6] (6 mg/kg s.c., 30 min) is given as “significant antinociception”; in [7] (6 mg/kg s.c., 30 min) it was “significant antinociception”.

Source of the values: publication PMC7932029 (Journal of natural products, 2020).
